This is an account of results in patent publication US20230234948A1, “CYCLOPROPYL DIHYDROQUINOLINE SULFONAMIDE COMPOUNDS” (AMGEN INC., priority 2020, published 2023).

This assay deals with T1, Human NaV1.7 (Homo sapiens, UniProt Q15858).
T1 construct: expressed in transfected cells; host or cells: Spiking HEK cells (without Kir2.1 transfection)
As to the kind of experiment: Ionworks Barracuda (IWB) automated patch clamp assay. Format: cell-based. Conditions: human NaV1.7 in HEK cells, population patch-clamp, state- and use-dependent voltage protocol; read-out: hNaV1.7 IWB-U IC50. The method, then:
Ionworks Barracuda (IWB) Automated Patch Clamp Assay (Same Protocol for Both Human and Mouse)
Human NaV1.7 currents were recorded in population patch-clamp mode with the IWB automated electrophysiology system (Molecular Devices, LLC, Sunnyvale, Calif.). Spiking HEK cells (without Kir2.1 transfection) were cultured and prepared for recordings as previously described for IonWorks Quattro testing^1. The external solution consisted of the following (in mM): NaCl 140, KCl 5, CaCl2 2, MgCl2 1, HEPES 10, and glucose 11, pH 7.4, with N-methyl-D-glucamine at 320 mOsmol. […] From a holding potential of −110 mV, currents were elicited by a train of 26 depolarizations of 150 ms duration to −20 mV at a frequency of 5 Hz. Cells were then clamped to −20 mV for a period of 4 minutes in the presence of a single concentration of test compound. Following this compound incubation period, cells were clamped to −110 mV for three seconds to recover unbound channels and put through the same 26 pulse voltage protocol as above. Peak inward current during the 26th pulse to −20 mV in the presence of compound was divided by the peak inward current evoked by the 26th pulse to −20 mV in the absence of compound to determine percent inhibition. Concentration-response curves of percent inhibition as a function of concentration were generated to calculate IC50 values as described in Kornecook, T. J.; Yin, R.; Altmann, S.; et al. Pharmacologic Characterization of AMG8379, a Potent and Selective Small Molecule Sulfonamide Antagonist of the Voltage-Gated Sodium Channel NaV1. 7.
The potency of the compounds of the present invention were evaluated on human NaV1.7 channels using the above described IonWorks Barracuda automated electrophysiology platform that evaluates the ability of compounds to block sodium conductance through NaV1.7 channels. A voltage-protocol that prosecutes both state-dependent as well as use-dependent inhibition was used as these modes of action are thought to be more relevant for the native state of NaV1.7 channels in pain sensing neurons in vivo.

Broadly, the IC50 is the concentration that inhibits the measured activity by half.

T1 sequence (Q15858 whole entry): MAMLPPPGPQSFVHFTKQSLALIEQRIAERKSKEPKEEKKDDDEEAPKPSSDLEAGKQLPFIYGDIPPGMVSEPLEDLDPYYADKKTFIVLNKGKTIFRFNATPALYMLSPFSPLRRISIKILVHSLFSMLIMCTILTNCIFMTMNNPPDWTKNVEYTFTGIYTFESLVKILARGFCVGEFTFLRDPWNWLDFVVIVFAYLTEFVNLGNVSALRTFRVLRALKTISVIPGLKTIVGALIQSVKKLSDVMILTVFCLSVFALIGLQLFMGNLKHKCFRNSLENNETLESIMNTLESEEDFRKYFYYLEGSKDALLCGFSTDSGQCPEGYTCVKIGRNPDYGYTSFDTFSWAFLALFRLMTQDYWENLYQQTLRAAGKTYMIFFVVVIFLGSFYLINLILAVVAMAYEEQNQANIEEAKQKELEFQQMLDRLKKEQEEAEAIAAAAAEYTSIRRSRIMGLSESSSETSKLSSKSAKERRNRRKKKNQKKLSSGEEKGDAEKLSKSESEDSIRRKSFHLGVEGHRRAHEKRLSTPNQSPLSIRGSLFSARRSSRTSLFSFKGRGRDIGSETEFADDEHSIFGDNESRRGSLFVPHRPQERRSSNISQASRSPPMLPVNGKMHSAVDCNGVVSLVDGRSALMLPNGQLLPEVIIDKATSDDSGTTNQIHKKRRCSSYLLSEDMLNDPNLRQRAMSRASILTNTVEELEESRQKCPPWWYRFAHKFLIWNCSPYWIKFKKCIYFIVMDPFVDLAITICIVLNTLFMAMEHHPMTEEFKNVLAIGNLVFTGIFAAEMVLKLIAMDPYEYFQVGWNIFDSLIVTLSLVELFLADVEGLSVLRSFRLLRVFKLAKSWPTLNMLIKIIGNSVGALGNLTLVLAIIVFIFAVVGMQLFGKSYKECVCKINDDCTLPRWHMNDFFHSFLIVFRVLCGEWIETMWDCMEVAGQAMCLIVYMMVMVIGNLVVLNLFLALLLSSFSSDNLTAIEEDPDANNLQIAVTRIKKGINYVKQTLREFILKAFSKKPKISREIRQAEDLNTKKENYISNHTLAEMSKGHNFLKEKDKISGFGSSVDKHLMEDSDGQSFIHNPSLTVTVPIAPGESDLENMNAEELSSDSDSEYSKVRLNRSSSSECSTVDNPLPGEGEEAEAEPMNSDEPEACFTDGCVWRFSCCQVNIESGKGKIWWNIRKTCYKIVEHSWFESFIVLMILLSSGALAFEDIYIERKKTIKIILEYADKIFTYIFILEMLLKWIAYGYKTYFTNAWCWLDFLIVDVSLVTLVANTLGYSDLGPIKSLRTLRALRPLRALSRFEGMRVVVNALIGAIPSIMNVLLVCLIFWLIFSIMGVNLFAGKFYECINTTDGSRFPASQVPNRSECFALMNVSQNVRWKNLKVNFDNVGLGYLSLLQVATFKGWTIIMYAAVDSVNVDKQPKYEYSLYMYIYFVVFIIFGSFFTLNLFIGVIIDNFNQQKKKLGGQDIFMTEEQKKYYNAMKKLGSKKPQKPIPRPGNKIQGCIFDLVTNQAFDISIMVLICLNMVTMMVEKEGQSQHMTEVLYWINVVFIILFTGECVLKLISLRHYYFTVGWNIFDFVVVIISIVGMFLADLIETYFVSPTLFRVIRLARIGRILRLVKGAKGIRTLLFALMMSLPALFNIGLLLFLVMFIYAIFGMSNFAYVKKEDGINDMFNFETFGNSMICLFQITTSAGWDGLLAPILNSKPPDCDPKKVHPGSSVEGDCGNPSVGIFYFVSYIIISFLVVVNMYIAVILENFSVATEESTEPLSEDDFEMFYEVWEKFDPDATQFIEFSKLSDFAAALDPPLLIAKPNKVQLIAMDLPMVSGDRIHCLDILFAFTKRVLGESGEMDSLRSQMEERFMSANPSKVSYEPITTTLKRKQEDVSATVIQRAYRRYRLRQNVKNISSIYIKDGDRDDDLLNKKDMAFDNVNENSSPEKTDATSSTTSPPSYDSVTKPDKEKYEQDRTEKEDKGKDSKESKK

Turning to `COc1cc(C2(C(F)(F)F)CC2)c(F)cc1-n1c(=O)ccc2cc(S(=O)(=O)Nc3ccon3)ccc21` (single isomer, unassigned) [Example 43, (M)-1-(5-fluoro-2-methoxy-4-(1-(trifluoromethyl)cyclopropyl)phenyl)-N-(isoxazol-3-yl)-2-oxo-1,2-dihydroquinoline-6-sulfonamide], the IC50 was determined as 1630 nM.
In the case of `COc1cc([C@H]2CC2(F)F)c(F)cc1-n1c(=O)ccc2cc(S(=O)(=O)Nc3ccon3)ccc21` (atropisomer, axis not shown; (P)) [Example 10, (P)-(R)-1-(4-(2,2-difluorocyclopropyl)-5-fluoro-2-methoxyphenyl)-N-(isoxazol-3-yl)-2-oxo-1,2-dihydroquinoline-6-sulfonamide], the IC50 was 66 nM.
Take `COc1cc(C2(C(F)(F)F)CC2)c(F)cc1-n1c(=O)ccc2cc(S(=O)(=O)Nc3ccon3)ccc21` (single isomer, unassigned) [Example 42, (P)-1-(5-fluoro-2-methoxy-4-(1-(trifluoromethyl)cyclopropyl)phenyl)-N-(isoxazol-3-yl)-2-oxo-1,2-dihydroquinoline-6-sulfonamide]: the concentration for half-maximal inhibition (IC50) amounted to 20 nM.
Take `COc1cc([C@H]2C[C@@H]2C(F)(F)F)c(C#N)cc1-n1c(=O)ccc2cc(S(=O)(=O)Nc3ccon3)ccc21` (atropisomer, axis not shown; (P)) [Example 37, (P)-1-(5-cyano-2-methoxy-4-((1S,2S)-2-(trifluoromethyl)cyclopropyl)phenyl)-N-(isoxazol-3-yl)-2-oxo-1,2-dihydroquinoline-6-sulfonamide]: the IC50 was determined as 7 nM.
As for `COc1cc([C@H]2C[C@@H]2C(F)(F)F)c(F)cc1-n1c(=O)ccc2cc(S(=O)(=O)Nc3ccon3)c(F)cc21` (single isomer, unassigned) [Example 46], the IC50 is 11 nM.
With `COc1cc([C@@H]2C[C@H]2C(F)(F)F)c(F)cc1-n1c(=O)ccc2cc(S(=O)(=O)Nc3ncns3)ccc21` (atropisomer, axis not shown; (P)) [Example 34, (P)-1-(5-fluoro-2-methoxy-4-((1R,2R)-2-(trifluoromethyl)cyclopropyl)phenyl)-2-oxo-N-(1,2,4-thiadiazol-5-yl)-1,2-dihydroquinoline-6-sulfonamide], the IC50 is 5 nM.
On to `COc1cc([C@H]2C[C@@H]2C2CC2)c(F)cc1-n1c(=O)ccc2cc(S(=O)(=O)Nc3ccon3)ccc21` (atropisomer, axis not shown; (P)) [Example 31, (P)-1-(4-((1R,2S)-[1,1′-bi(cyclopropan)]-2-yl)-5-fluoro-2-methoxyphenyl)-N-(isoxazol-3-yl)-2-oxo-1,2-dihydroquinoline-6-sulfonamide], for which the IC50 worked out at 9 nM.
As for `COc1cc([C@H]2C[C@@H]2C(F)(F)F)c(C)cc1-n1c(=O)ccc2cc(S(=O)(=O)Nc3ccon3)ccc21` (single isomer, unassigned) [Example 27], the figure is 13 nM; as for `COc1cc([C@H]2C[C@@H]2C(F)(F)F)c(F)cc1-n1c(=O)ccc2cc(S(=O)(=O)Nc3ncccn3)ccc21` (atropisomer, axis not shown; (P)) [Example 21, (P)-1-(5-fluoro-2-methoxy-4-((1S,2S)-2-(trifluoromethyl)cyclopropyl)phenyl)-2-oxo-N-(pyrimidin-2-yl)-1,2-dihydroquinoline-6-sulfonamide], 35 nM.
Turning to `COc1cc(C2(C(F)(F)F)CC2)c(F)cc1-n1c(=O)ccc2cc(S(=O)(=O)Nc3ccon3)ccc21` (single isomer, unassigned) [Example 22, (P)-1-(5-fluoro-2-methoxy-4-(1-(trifluoromethyl)cyclopropyl)phenyl)-N-(isoxazol-3-yl)-2-oxo-1,2-dihydroquinoline-6-sulfonamide], the half-maximal inhibitory concentration (IC50) worked out at 14 nM.
Regarding `COc1cc([C@H]2C[C@@H]2c2ccccc2)c(F)cc1-n1c(=O)ccc2cc(S(=O)(=O)Nc3ccon3)ccc21` (atropisomer, axis not shown; (P)) [Example 9, (P)-1-(5-fluoro-2-methoxy-4-((1S,2S)-2-phenylcyclopropyl)phenyl)-N-(isoxazol-3-yl)-2-oxo-1,2-dihydroquinoline-6-sulfonamide], the concentration for half-maximal inhibition (IC50) was 4 nM.
Turning to `COc1cc([C@@H]2C[C@H]2C(F)(F)F)c(F)cc1-n1c(=O)ccc2cc(S(=O)(=O)Nc3ncco3)ccc21` (atropisomer, axis not shown; (P)) [Example 35, (P)-1-(5-fluoro-2-methoxy-4-((1R,2R)-2-(trifluoromethyl)cyclopropyl)phenyl)-N-(oxazol-2-yl)-2-oxo-1,2-dihydroquinoline-6-sulfonamide], the IC50 was 11 nM.
As for `COc1cc([C@@H]2C[C@H]2C(F)(F)F)c(F)cc1-n1c(=O)ccc2cc(S(=O)(=O)Nc3ccon3)ccc21` (atropisomer, axis not shown; (P)) [Example 5, (P)-1-(5-fluoro-2-methoxy-4-((1R,2R)-2-(trifluoromethyl)cyclopropyl)phenyl)-N-(isoxazol-3-yl)-2-oxo-1,2-dihydroquinoline-6-sulfonamide], the IC50 worked out at 9 nM.
Next, `COc1cc([C@H]2C[C@@H]2C(F)(F)F)c(Cl)cc1-n1c(=O)ccc2cc(S(=O)(=O)Nc3cccnn3)ccc21` (single isomer, unassigned) [Example 15]: 14 nM; `COc1cc([C@H]2C[C@@H]2C(F)(F)F)ccc1-n1c(=O)ccc2cc(S(=O)(=O)Nc3ccon3)c(F)cc21` (atropisomer, axis not shown; (P)) [Example 48, (P)-7-fluoro-N-(isoxazol-3-yl)-1-(2-methoxy-4-((1S,2S)-2-(trifluoromethyl)cyclopropyl)phenyl)-2-oxo-1,2-dihydroquinoline-6-sulfonamide]: 11 nM; `COc1cc([C@H]2C[C@@H]2C(F)(F)F)c(C)cc1-n1c(=O)ccc2cc(S(=O)(=O)Nc3ncccn3)ccc21` (atropisomer, axis not shown; (P)) [Example 29, (P)-1-(2-methoxy-5-methyl-4-((1S,2S)-2-(trifluoromethyl)cyclopropyl)phenyl)-2-oxo-N-(pyrimidin-2-yl)-1,2-dihydroquinoline-6-sulfonamide]: 32 nM.
In the case of `COc1cc([C@@H]2C[C@H]2C(F)(F)F)c(C)cc1-n1c(=O)ccc2cc(S(=O)(=O)Nc3ncccn3)ccc21` (atropisomer, axis not shown; (P)) [Example 28, (P)-1-(2-methoxy-5-methyl-4-((1R,2R)-2-(trifluoromethyl)cyclopropyl)phenyl)-2-oxo-N-(pyrimidin-2-yl)-1,2-dihydroquinoline-6-sulfonamide], the IC50 is 42 nM.
For the molecule `COc1cc([C@@H]2C[C@H]2C(F)(F)F)c(F)cc1-n1c(=O)ccc2cc(S(=O)(=O)Nc3cccnn3)ccc21` (atropisomer, axis not shown; (P)) [Example 16, (P)-1-(5-fluoro-2-methoxy-4-((1R,2R)-2-(trifluoromethyl)cyclopropyl)phenyl)-2-oxo-N-(pyridazin-3-yl)-1,2-dihydroquinoline-6-sulfonamide], the IC50 was 19 nM.
Regarding `COc1cc([C@H]2C[C@@H]2C(F)(F)F)c(Cl)cc1-n1c(=O)ccc2cc(S(=O)(=O)Nc3ncccn3)ccc21` (atropisomer, axis not shown; (P)) [Example 12, (P)-1-(5-chloro-2-methoxy-4-((1S,2S)-2-(trifluoromethyl)cyclopropyl)phenyl)-2-oxo-N-(pyrimidin-2-yl)-1,2-dihydroquinoline-6-sulfonamide], the half-inhibitory concentration (IC50) was found to be 17 nM.
